Test results: US6821761B2, “Sphingolipid ceramide N-deacylase, methods for producing sphingolipids and sphingolipid derivatives, and sphingolipid ceramide N-deacylase gene” (Takara Bio, Inc., priority 1994, dated 2004)

Legend:
[1] = system: Limulus polyphemus ceramidase; test: Ceramidase activity of Limulus polyphemus serum / purified ceramidase on ceramide substrates; assay type: biochemical
Experimental: A 10 μl of serum obtained by centrifugation of Limulus polyphemus blood was allowed to undergo 18 hours of reaction at 37° C. with 10 μl of 50 mM acetate buffer (pH 5.0) containing 1 nmol of NBD ceramide prepared in Example 21 and 0.5% Triton X-100. After completion of the reaction, the reaction solution was developed on thin layer chromatography (developing solvent: chloroform/methanol/25% liquid ammonia=90/20/0.5 by volume) and detected under an ultraviolet ray lamp.
In order to confirm that the ceramidase activity found in the Limulus polyphemus serum is really a ceramidase-derived activity, the ceramidase was purified to find that it was an acidic ceramidase having an optimum pH of 4.5 and a molecular weight of about 205 kDa when measured by a gel filtration method.

ceramidase in B16 cells = test: Measurement of ceramidase activity in B16 cells with labeled ceramide substrates; assay type: biochemical; conditions: B16 cell suspension, 50 μg protein, 0.5% Triton X-100, 37° C. 3 or 6 hours; FIG. 16
Experimental: Measurement of ceramidase activity in B16 cells using radioisotope labeled ^14C ceramide (C12−^14C-Cer) and fluorescent sphingolipid derivative NBD ceramide (C12-NBD-Cer) as the substrate:
A cell suspension was prepared by suspending 6×10^6 of B16 cells in 200 μl of 10 mM phosphate buffer. The amount of the protein was determined using MicroBCA™ protein assay reagent (manufactured by Pierce).
Under acidic condition in 10 μl of 50 MM acetate buffer (pH 4.0) containing 10 μl of the cell suspension (diluted to a protein content of 50 μg), 200 pmol of C12-NBD-Cer obtained in Example 21 or 100 pmol of C12−^14C-Cer obtained using lauric acid instead of palmitic acid used in Example 20, as the substrate, and 0.5% Triton X-100. […]
Each of the samples was developed on thin layer chromatography (developing solvent, chloroform/methanol/25% liquid ammonia =90/20/0.5 by volume), and the released ^14C fatty acid was determined using BAS 1000 Imaging Analyzer (manufactured by Fuji Photo Film) to calculate the reaction ratio. Also, the released NBD fatty acid was determined using Chromatoscanner CS 9000 (manufactured by Shimadzu Corporation), and the reaction ratio was calculated.

SCDase = test: Substrate specificity (hydrolysis) of purified SCDase from Pseudomonas sp. TK-4; assay type: biochemical; conditions: 10 nmol sphingolipid, 2 milliunits enzyme, 37° C. 16 h, 20 mM sodium acetate buffer pH 5.0, 0.8% Triton X-100, TLC
Experimental: The enzyme activity of the SCDase is assayed in the following manner. To 10 μl of a substrate solution [50 mM acetate buffer solution (pH 6.0) containing 2 mM of asialo GM1 and 0.6% (w/v) of Triton X-100] is added 10 μl of an enzyme solution. After reacting at 37° C. for 30 minutes, the enzyme reaction is ceased by heating the mixture to 100° C. for 3 minutes. Then the reaction mixture is concentrated to dryness with a centrifugal concentrator. Then the obtained concentrate is dissolved in 10 μl of 50% methanol and placed on a TLC plate (silica gel 60; manufactured by Merck & Co., Inc.). After developing with chloroform/methanol/0.02% aqueous solution of CaCl2 (5/4/1 by volume), the sphingolipid is subjected to color development by the orcinol-sulfuric acid method. […] This spot is determined by using a TLC chromatoscanner (Shimadzu CS-9000, manufactured by Shimadzu Corporation) at a wavelength of 540 nm.
Sphingolipids (10 nmol each) were incubated at 37° C. for 16 h with 2 milliunits of the enzyme in 20 μl of 20 mM sodium acetate buffer, pH 5.0, containing 0.8% Triton X-100. The extent of hydrolysis was examined by TLC and calculated.

crude SCDase = test: Substrate specificity of crude SCDase (culture supernatant) from Shewanella alga NS-589; assay type: biochemical; conditions: SCDase produced by Shewanella alga NS-589
From the text: Acting on acidic glycolipids (GM1, GM2, GD1a, GD1b, sialosyl paragloboside, etc.), neutral glycolipids (lactosyl ceramide, Gb4, Gb5, etc.), sulfated glycolipids (sulfatide, etc.) and sphingomyelin which is a sphingophospholipid, thus forming the corresponding lysosphingolipid and fatty acid in each case.
The substrate specificity was examined as follows. Shewanella alga NS-589 was inoculated into a synthetic medium (dipotassium hydrogenphosphate 0.05%, ammonium chloride 0.05%, sphingomyelin 0.1%, sodium taurodeoxycholate 0.1%, sodium chloride 2%, 2,6-O-dimethyl-β-cyclodextrin 0.1%; pH 7.4). Two days after shaking cultivation at 30° C., the strain was removed to obtain a supernatant by centrifuge. A 50 mM acetate buffer ([…]; pH 6.0) containing 3 μl of the supernatant and 1.6% Triton X-100 was allowed to react with 5 μl of 1.2 mM of each of sphingolipids shown in Table 2 at 37° C. for 16 hours, and then the resulting mixture was analyzed with a thin layer chromatography.
The digestion ratios of various substrates by a crude SCDase obtained from Shewanella alga NS-589.

Shewanella alga NS-589 = test: Conversion of sphingomyelin into sphingosylphosphorylcholine by culture of Shewanella alga NS-589; assay type: cell-based; conditions: synthetic medium, sphingomyelin 0.1%, 30° C. shaking 2 days, TLC
Experimental: Shewanella alga NS-589 was inoculated into 200 ml of a synthetic medium (dipotassium hydrogenphosphate 0.05%, ammonium chloride 0.05%, sphingomyelin 0.1%, sodium taurodeoxycholate 0.1%, sodium chloride 2%, 2,6-O-dimethyl-β-cyclodextrin 0.1%; pH 7.4) and incubated therein at 30° C. under shaking for 2 days.
Then the cells were eliminated by centrifuging the culture medium to obtain the culture supernatant which was then analyzed by thin layer chromatography. […] This culture medium was added to a C18 reversed phase column [Preoperative C18 125A (manufactured by Millipore), packing: 30 g, column diameter: 30 mm, open column]. After desalting and washing with 300 ml of water, the column was eluted with 300 ml of methanol and 300 ml of chloroform/methanol=1/1 (by volume). Then the sphingosylphosphorylcholine was eluted into the methanol fraction. After removing the solvent in the sphingosylphosphorylcholine fraction with a rotary evaporator, the residue was added to a silica gel 60 column (manufactured by Merck) and fractionated with chloroform/methanol/water=5/4/1 (by volume). Further, the solvent in the sphingosylphosphorylcholine fraction thus obtained was removed with a rotary evaporator and the residue was freeze-dried. Thus 47.6 mg of purified sphingosylphosphorylcholine could be obtained.

[2] = system: SCDase derived from the genus Pseudomonas; test: Fatty acid exchange reaction on various acceptors by SCDase; assay type: biochemical; conditions: 1 nmol [1-14C] stearic acid, 1 nmol sphingolipid, 30 μU SCDase, acetate buffer pH 6.0, 0.8% Triton X-100, overnight 37° C., galactosyl ceramide = 100
Experimental: A 10 μl portion of 50 mM acetate buffer (pH 6.0) containing 1 nmol [1−^14C] stearic acid, 1 nmol sphingolipid, 0.8% Triton X-100 and 30 μU SCDase derived from the genus Pseudomonas was allowed to react overnight at 37° C.
The thus obtained reaction solution was developed on thin layer chromatography and exposed to an imaging plate to carry out determination of the reaction product by BAS 1000 Imaging Analyzer (manufactured by Fuji Photo Film).

CCCCCCCCCCCCC/C=C/[C@@H](O)[C@H](CO)NC(=O)CCCCCCCCCCCNc1ccc([N+](=O)[O-])c2nonc12 [NBD ceramide]
Hydrolysis of substrate by Limulus polyphemus serum (ceramidase activity) ([1]; 1 nmol substrate, 10 μl serum, acetate buffer pH 5.0, 0.5% Triton X-100, 18 hours 37° C., TLC under UV): a newly formed NBD aminododecanoic acid was detected
Action of acidic ceramidase in B16 cells on substrate (ceramidase in B16 cells): hardly
Action of alkaline ceramidase in B16 cells on substrate (ceramidase in B16 cells): acts well

CCCCCCCCCCCCC/C=C/[C@@H](O)[C@H](CO)NC(=O)CCCCCCCCCCCCCCCCC [N-stearoylsphingosine (C18:0, d18:1), N-stearoylsphingosine]
Hydrolysis by purified Limulus polyphemus ceramidase (substrate preference) ([1]; purified ceramidase): most efficiently

Sphingomyelin
Digestion ratio (%) (SCDase): 28%
Substrate specificity: acting on the substrate, forming the corresponding lysosphingolipid and fatty acid (crude SCDase): Acting on
Sphingomyelin converted into sphingosylphosphorylcholine (Shewanella alga NS-589): 80%
Relative activity (%) [2]: 2.9%
